Measured values from patent US20240082296A1, “TREATMENT OF MUSCLE ATROPHY USING DEXTRAN SULFATE” (TX MEDIC AB, priority 2020, published 2024).

Experiments:
[1] = system: human patients suffering from ALS; test: serum lactate in ALS patients before and after dextran sulfate (Example 1); format: in vivo; details: 2 mg/kg s.c. once a week; for serum lactate levels: week 0: 1.78±0.59
Description: Using a longitudinal design, this study was aimed to determine the changes of selected serum metabolites in ALS patients before dextran sulfate administration and after different times following the beginning of the treatment. Changes in the measured metabolites indicated the biochemical response of the patient to dextran sulfate that is underpinning potential disease modification and the mechanisms of action of the drug in this ALS patient population.
(§1) Dextran sulfate (Tikomed AB, Viken, Sweden, WO 2016/076780) was administered at 2 mg/kg by […] subcutaneous injection once a week for ten weeks to 8 human patients suffering from ALS.
Peripheral venous blood samples were collected from patients before (week 0) and after dextran sulfate administration (week 5 and week 10) after at least 15 minutes of complete rest, using the standard tourniquet procedure, from the antecubital vein into a single VACUETTE® polypropylene tube containing serum separator and clot activator (Greiner-Bio One GmbH, Kremsmunster, Austria). After 30 mins at room temperature (20-25° C.), blood withdrawals were centrifuged at 1,890×g for 10 min to get serum aliquots.
A serum aliquot of 500 μl was supplemented with 1 ml of HPLC-grade acetonitrile, vortexed for 60 secs, centrifuged at the maximum speed in a top-bench centrifuge to precipitate proteins. Supernatants were washed with large volumes of HPLC-grade chloroform to remove organic solvent, centrifuged and the upper aqueous phases were transferred to different tubes, clearly labeled to identify the sample and stored at −80° C. until analyzed to determine different water-soluble compounds.

[2] = system: human patients suffering from ALS; test: ALSAQ-40 ADL and PM sub-scores in ALS patients (Example 1); format: in vivo
Description: as §1
ALSAQ-40 was assessed pre-treatment and weekly thereafter for the 10 treatment weeks and for the visits at the follow-up period.
The ALSAQ-40 sub-scores entitled ‘Activities of Daily Living/Independence’ (ADL) and ‘Physical Mobility’ (PM) reflect the patients' view of their level of physical activity and independence. A falling score reflects improved physical activity.

patients with ALS = test: Phase IIa trial in ALS patients: serum myoglobin and creatine kinase (Example 2); format: in vivo, human
Description: A clinical trial in the form of a Phase IIa, single-center, open label, single-arm study where the safety, tolerability and possible efficacy of subcutaneously administered dextran sulfate was evaluated in patients with ALS of intermediate progression rate. The clinical trial was conducted at the Sahlgrenska University Hospital, Gothenburg, Sweden and was overseen and approved by the Ethics Committee of the University of Gothenburg and by the Swedish Medical Products Agency.
Dextran sulfate (Tikomed AB, Viken, Sweden, WO 2016/076780) was administered at 1 mg/kg by […] subcutaneous injection once a week for five weeks to 13 human patients suffering from ALS.
Blood samples were drawn at defined study intervals by a venous catheter into vacutainer tubes. Laboratory analyses of blood plasma were performed immediately after collection by the Clinical Chemistry Laboratory at the Sahlgrenska University Hospital.

dextran sulfate
increase of serum lactate levels ([1]; after 5 weeks vs week 0): 29.8% | serum lactate levels ([1]; after 5 weeks, p<0.01): 2.31 ± 1.02 mM | increase of serum lactate levels ([1]; after 10 weeks vs week 0): 70% | serum lactate levels ([1]; after 10 weeks): 3.02 ± 1.59 mM | decline of ALSAQ-40 ADL sub-score ([2]; after 10 weeks of treatment): 18.6% | decline of ALSAQ-40 PM sub-score ([2]; after 10 weeks of treatment): 16% | ALSAQ-40 PM sub-score ([2]; after 10 weeks, pre-treatment 27.2±22.2): 22.7±20.2 | ALSAQ-40 ADL sub-score ([2]; after 10 weeks, pre-treatment 58.9±21.4, p<0.05, falling score = improved): 44.4±24.7 | reduction in serum creatine kinase levels (patients with ALS; after 4 weeks): 13.3% | reduction in serum myoglobin levels (patients with ALS; after 4 weeks vs Day 1): 30% | serum myoglobin levels (patients with ALS; after 4 weeks, 1 mg/kg s.c. once a week, Day 1: 133.92±126.28, p=0.021): 103.69 ± 72.16 µg/L | serum creatine kinase levels (patients with ALS; after 4 weeks, 1 mg/kg s.c. once a week, before 7.15±5.74, p<0.05): 6.2±5.08 μkat/L
